From patent publication US10149472B2, “Chitin oligomers for use in promoting non-leguminous plant growth and development” (Wisconsin Alumni Research Foundation, priority 2015, dated 2018)

How the values were obtained:
[1] = test system: rice; experiment: Root architecture modification in wild-type rice after submersion treatment; type: in vivo, Oryza sativa cv Nipponbare; conditions: 10^−8M, 24 hours submersion, assessed after two weeks, FIG. 3
Description: (§1) Oryza sativa cv Nipponbare wild-type and Tos17 insertion lines in POLLUX (line NC6453) and DMI3 were used for root architecture experiments (12, 13). Seeds were prepared by sterilizing with 2% bleach for 20 minutes, followed by 3, 5-minute rinses with sterile water. The sterile seeds were then imbibed overnight. Seeds were then plated on damp germination paper in Petri plates under sterile conditions and germinated in the dark at 25 degrees for 7 days. Germinated rice plants were then plated on Fahraeus medium on germination paper and grown at 22 degrees under constant light. After 5 days the plants were treated with 10^−8M LCOs and COs for 24 hours by submersion and re-plated onto Fåhræus Medium 1.5% agar plates (0.132 g/L CaCl2, 0.12 g/L MgSO4.7H2O, 0.1 g/L KH2PO4, 0.075 g/L Na2HPO4.2H2O, 5 mg/L Fe-citrate, and 0.07 mg/L each of MnCl2.4H2O, CuSO4.5H2O, ZnCl2, H3BO3, and Na2MoO4.2H2O, adjusted to pH 6.5 before autoclaving). As all signals were suspended in 50% ethanol, the appropriate concentration of ethanol in sterile DI water served as a control. Root system architecture was assessed after 2 weeks.
(§2) Total lateral roots of rice were enumerated manually two weeks after application of 10^−8M COs and LCOs. As COs and LCOs were suspended in 50% ethanol, the control is sterile deionized water containing the appropriate amount of ethanol. Lateral roots were defined as large and fine lateral roots emerging from crown roots, as well as fine lateral roots emerging from large lateral roots. Root system length was measured starting from the root-shoot junction to the tip of the longest root. The number of crown roots was assessed manually as those roots emerging from the root-shoot junction. Root type characterizations were based upon the descriptions in Gutjahr et al. (19). Data were assessed for normality using the Shapiro-Wilk test (α=0.01), and statistical significance was determined using a paired t-test assuming unequal variances, or a Mann-Whitney-Wilcoxon Test if normality was not observed (α=0.05). All statistical analysis was conducted using the R software package (20).

[2] = test system: rice knock-out mutants of pollux and dmi3; experiment: Root architecture modification in rice Ospollux and Osdmi3 mutants; type: in vivo, Oryza sativa cv Nipponbare; conditions: 10^−8M; Ospollux and Osdmi3 mutants vs wild-type; FIG. 4
Description: as §1
as §2, with “Lateral roots were defined as large and fine lateral roots emerging from crown roots, as well as fine lateral roots emerging from large lateral roots.” left out, “Root type characterizations were based upon the descriptions in Gutjahr et al. (19).” left out, “All statistical analysis was conducted using the R software package (20).” left out
To assess the role of the common symbiotic pathway in regulating root architecture modifications in response to purified LCOs and COs, we quantified root responses to mycorrhizal signals in rice knock-out mutants of pollux (upstream of calcium spiking) and dmi3 (downstream of calcium spiking).

[3] = test system: Hard Red Spring Wheat (HRSW); experiment: Seed treatment of hard red spring wheat in vitro (plates); type: in vivo; conditions: seed coating 125 μl of 10^−6 M; for Number of Lateral Roots / Number of Primary Roots: 4-5 days after transfer
Description: Hard red spring wheat seeds were surface sterilized using ethanol and bleach. The sterilized seeds were then divided among 4 treatment groups of 5 grams each into 50 ml falcon tubes. To the control tube, 0.5% ethanol in water was added. To the CO4 tube, 125 μl of 10^−6 M CO4 solution was added. To the CO8 tube, 125 μl of 10^−6 M CO8 solution was added. To the “Consensus” tube, 125 μl of 10^−6 M solution of chitosan (CONSENSUS® chitosan; Loveland Products, Inc., Loveland, Colo.) was added. Each tube was then shaken to coat the seeds. The coated seeds were then placed on sterile Petri dishes in a hood and were left to dry overnight in the hood.
The seeds were then germinated on damp germination paper in sterile Petri dishes for 4 days. The resulting seedlings were transferred to Fahräeus medium plates containing damp germination paper, and the plates were wrapped in Parafilm®. Fahräeus medium contains 0.5 m M MgSO4, 0.7 mM KH2PO4, 0.4 mM Na2HPO4, 0.02 mM Fe-EDTA, 0.01 mM MnSO4, 0.007 mM CuSO4, 0.006 mM ZnSO4, 0.016 mM H3BO3, 0.001 mM Na2MoO4, and 15 g/L Agar for plant tissue, adjusted to pH 6.5 before autoclaving. The plants were grown at room temperature under continuous light for 4-5 days. The number of primary roots (PR), lateral roots (LR), root system length (RSL) and dry weight (DW) was then measured for all plants.

[4] = test system: Hard Red Spring Wheat; experiment: Seed treatment of hard red spring wheat in pots; type: in vivo; conditions: seed coating 125 μl of 10^−6 M, 2 weeks after planting
Description: (§3) Five grams of hard red spring wheat seeds were added to three separate 50 ml tubes. A water solution containing 0.5% ethanol was added to the control tube, 125 μl of 10^−6 M CO4 solution was added to the CO4 tube, and 125 μl of 10^−6 M CO8 solution was added to the CO8 tube. Each tube was then shaken to coat the seeds. Seeds were potted immediately following treatment into moistened SUNGRO® potting mix in 4×6×6 cm pots. Plants were watered by pouring water into the tray containing the pots up to about ¾ inch high. After sowing the seeds, the pots were randomly distributed (16 pots per treatment) throughout the tray and placed underneath continuous light at room temperature for 1 week. Liquid Fahräeus medium (plant fertilizer solution; see above) was applied every 2 days or when necessary. After a week, the pots were placed underneath 10 h light and 14 h dark cycle at room temperature for 1 week. After 1 week underneath 10 h light and 14 h dark cycle (2 weeks after planting), the plants were carefully removed from the pots, and as much soil as possible was shaken off. The remaining soil was removed by submerging the root system into a beaker of water. The number of primary roots (PR), lateral roots (LR), root system length (RSL) and dry weight (DW) was then measured for all plants.

[5] = test system: corn (maize); experiment: Seed treatment of corn in pots; type: in vivo; conditions: seed coating 125 μl of 10^−6 M, 2 weeks after planting
Description: as §3, with “corn (maize)” for “hard red spring wheat”

Q: CC(=O)N[C@H]1[C@H](O[C@H]2[C@H](O)[C@@H](NC(C)=O)C(O)O[C@@H]2CO)O[C@H](CO)[C@@H](O[C@@H]2O[C@H](CO)[C@@H](O[C@@H]3O[C@H](CO)[C@@H](O)[C@H](O)[C@H]3NC(C)=O)[C@H](O)[C@H]2NC(C)=O)[C@@H]1O (stereo partly shown) [CO4, tetra-N-acetylchitotetraose] was tested. Which crown root growth [1] did it give?
A: Its crown root growth is “promoted”.

Q: What about the lateral root growth [1] of the same compound?
A: Its lateral root growth is “promoted”.

Q: What about the “dependence of lateral root growth promotion on POLLUX / DMI3” value [2] of the same compound?
A: Its value is “dependent on both POLLUX and DMI3”.

Q: And the “Dry Weight” value [3]?
A: Its value is 0.0206 g.

Q: And the “Number of Lateral Roots” value [3]?
A: Its value is 3.73.

Q: What about the “Number of Primary Roots” value [3] of the same compound?
A: The value was 5.20.

Q: And the “Number of Lateral Roots” value [4]?
A: The value was 16.25.

Q: What about the “Number of Primary Roots” value [4] of the same compound?
A: Its value is 3.15.

Q: What about the “Root System Length (cm)” value [4] of the same compound?
A: Its value is 11.75 cm.

Q: What about the “Average Dry Weight” value [5] of the same compound?
A: Its value is 0.1225.

Q: What about the “Average Root System Length” value [5] of the same compound?
A: The value was 23.76.

Q: And the “Average Seminal Roots” value [5]?
A: Its value is 4.45.

Q: Which results are given for CC(=O)N[C@H]1[C@H](O[C@H]2[C@H](O)[C@@H](NC(C)=O)[C@H](O[C@H]3[C@H](O)[C@@H](NC(C)=O)[C@H](O[C@H]4[C@H](O)[C@@H](NC(C)=O)C(O)O[C@@H]4CO)O[C@@H]3CO)O[C@@H]2CO)O[C@H](CO)[C@@H](O[C@@H]2O[C@H](CO)[C@@H](O[C@@H]3O[C@H](CO)[C@@H](O[C@@H]4O[C@H](CO)[C@@H](O[C@@H]5O[C@H](CO)[C@@H](O)[C@H](O)[C@H]5NC(C)=O)[C@H](O)[C@H]4NC(C)=O)[C@H](O)[C@H]3NC(C)=O)[C@H](O)[C@H]2NC(C)=O)[C@@H]1O (stereo partly shown) [CO8, octa-N-acetyl-chitooctaose]?
A: crown root growth [1]: promoted; lateral root growth [1]: promoted; dependence of lateral root growth promotion on POLLUX / DMI3 [2]: dependent on POLLUX; Dry Weight [3]: 0.0191 g; Number of Lateral Roots [3]: 3.00; Number of Primary Roots [3]: 5.20; Root System Length (cm) ([3]; * significant at P < 0.05): 11.51 cm; Number of Lateral Roots [4]: 14.30; Number of Primary Roots [4]: 3.35; Root System Length (cm) [4]: 12.22 cm; Average Dry Weight [5]: 0.1229; Average Root System Length [5]: 21.42; Average Seminal Roots [5]: 4.75
